Reference: US7109014B1, “Diglycosidase isolated from microorganisms” (Amano Enzyme Inc., priority 1998, dated 2006)
Structures can show the parent of a compound that is named as a salt. Where two headings read alike, the source gives them in different places.

B1: diglycosidase derived from Aspergillus fumigatus: purified enzyme preparation of diglycosidase from Aspergillus fumigatus IAM 2046, single band of 47 kDa, SEQ ID NO: 8 (protein, listed as Aspergillus fumigatus)
chain: AASASAYCSNSAGNYKLSSIAAPVQGAGNPGSESTWQLTVDDTSSGHKQTIVGFGAAVTDATVTSFNTLSASVLQDLLNKLMTPAGANFALMRHTIGASDLSGDPAYTYDDNGGKADPSLSGFNLGDRGTAMAKMLATMKSLQPNLKILGSPWSAPGWMKLNGVLDGNTNNNNLNDGYLTSGGTGSTGYASQFAQYFVKYIQAYKNLGAHVDAITIQNEPLFSSAGYPTMYVYDYESAQLIQNYIGPALASAGLDTEIWAYDHNTDVPSYPQTVLNQAGQYVKSVAWHCYAPNVDWTVLSQFHNTNPGVKQYMTECWTPASGAWHQAADFTMGPLQNWASGVAAWTLGTNAQDGPHLSTGGCATCQGLVTINNGGYTLNTAYYMMAQFSKFMPPGAIVLNGSGSYTYSGGGGIQSVASLNPDGTRTVVIENTFGNDVYVTVTMKSGQKWSGNAPSQSVTTWVLPSA

How the values were obtained:
[1] = test system: Aspergillus fumigatus IAM 2046; assay: Effects of inducers on the production of diglycosidase; type: cell-based; settings: for activity at 0.1 %: Aspergillus fumigatus, IAM2046, 144 h, read-out: Inducing ability (%)
Protocol: Measurement of the activity was carried out using an automatic chemical analyzer (TBA-30R, manufactured by TOSHIBA CORP.). A 30 μl portion of each enzyme sample was mixed with 200 μl of acetate buffer solution (pH 5.5) containing 2 mM of p-nitrophenyl (pNP) primeveroside as the disaccharide glycoside substrate to carry out the reaction at 40° C. and at a cycle time of 22.5 seconds, for 9.75 minutes, and then the reaction solution was mixed with 250 μl of sodium carbonate to measure absorbance at 412 nm. Measurement of the sample blank was carried out in the same manner using 20 mM acetate buffer (pH 5.5) instead of the substrate solution.
Using Aspergillus fumigatus IAM 2046, effects of inducers on the production of diglycosidase were examined. Aspergillus fumigatus IAM 2046 was cultured for 6 days in a culture medium (2% soybean flour, 0.3% sodium chloride, 0.1% KH2PO4, 0.05% MgSO4.7H2O, 3% soluble starch) supplemented with 0.1% of each of various saccharides, and the diglycosidase activity was measured.

[2] = Optimum pH of diglycosidase; type: biochemical
Protocol: Its optimum pH was measured in the following manner. A 400 μl portion of 2 mM pNP-primeveroside solution which had been adjusted to a respective pH value of from pH 2 to 5 with 20 mM secondary citric acid-HCl buffer was incubated at 37° C. for 5 minutes. Next, this was mixed with 90 μl of the enzyme solution to carry out the reaction at 37° C. for 20 minutes. The reaction was stopped by adding 500 μl of 0.5 M sodium carbonate solution, and the activity measurement was carried out by measuring the absorbance at 420 nm.

[3] = Optimum temperature of diglycosidase; type: biochemical; settings: pH 2.5, 20 minutes
Protocol: Its optimum temperature was measured in the following manner. A 400 μl portion of 2 mM pNP-primeveroside solution prepared using 20 mM disodium citric acid-HCl buffer (pH 2.5) was mixed with 90 μl of the enzyme solution to carry out the reaction at 30 to 65° C. for 20 minutes. The reaction was stopped by adding 500 μl of 0.5 M sodium carbonate solution, and the activity was determined by measuring the absorbance at 420 nm.

[4] = Thermal stability of diglycosidase (residual activity); type: physicochemical; settings: pH 8, 1 hour, 30 to 55° C.
Protocol: Thermal stability of the purified preparation was examined by diluting it 100 times with 20 mM glycine NaCl—NaOH buffer (pH 8), treating the dilution at each temperature of from 30 to 55° C. for 1 hour and then measuring the residual activity. As a result, the activity was stable at a temperature of 50° C. or below.

[5] = Release of primeverose from pNP-primeveroside by TLC; type: biochemical; settings: 0.3 AU purified enzyme, 37° C., 24 hours
Protocol: Each of the crude enzyme solutions obtained in Examples 1 and 2 was concentrated using an ultrafiltration membrane having a molecular weight cutoff of 6,000. Next, 1 ml of the concentrated solution was mixed with 1 ml of a 5 mg/ml pNP-primeveroside solution which had been prepared using 20 mM phosphate buffer (pH 6.0), and the mixture was incubated at 37° C. Samples were collected 1, 2, 4, 24 and 48 hours thereafter to confirm release of primeverose by a thin layer chromatography (TLC).
A 0.3 AU portion of the purified enzyme solution obtained in Example 6 and the aforementioned pNP-primeveroside were incubated at 37° C. for 24 hours to examine release of disaccharide by TLC. […] Such a spot was not found by the heat-treated purified enzyme solution used as a control.

[6] = Release of disaccharide and formation of aroma from eugenyl primeveroside; type: biochemical; settings: 0.3 AU purified enzyme, 37° C., 24 hours
Protocol: eugenyl primeveroside solution adjusted to 5 mg/ml with 20 mM phosphate buffer (pH 6.0), the mixture was incubated at 37° C. for 24 hours and then the formation of aroma was examined by a sensory test (10 panel). […]
[…] […] These were not found in heat-inactivated enzyme solution.

[7] = Release of disaccharide from pigment glycoside by TLC; type: biochemical; settings: 5 mg/ml ruberythric acid, 37° C., 24 hours
Protocol: Release of disaccharide was examined using a disaccharide glycoside, ruberythric acid, as the substrate. Ruberythric acid was prepared by adsorbing a water extract of Rubia tinctorum L. root powder for staining use (available from Tanaka Senshoku Ten) to HP-20 column, washing the column with 50% methanol, and then eluting the compound with 100% methanol and evaporating the eluate to dryness using an evaporator. A substrate prepared by dissolving the thus recovered ruberythric acid in a phosphate buffer to a concentration of 5 mg/ml was mixed with the crude enzyme solution (0.3 AU) shown in Example 4 or the purified enzyme solution shown in Example 6 and incubated at 37° C. for 24 hours, and then the reaction solution was analyzed by TLC.

[8] = Sugar transfer in disaccharide unit by diglycosidase; type: biochemical; settings: 55° C., 6 hours
Protocol: The purified enzyme of Example 6 was diluted with deionized water to adjust the activity to E1.0 AU/ml, and acetonitrile ([…]) containing 2.5% phenethyl alcohol, 20 mM acetate buffer (250 μl) containing 10% primeverose and the enzyme solution (50 μl) were mixed to carry out the reaction at 55° C. The reaction was completed after 6 hours and the reaction solution was mixed with 500 μl of diethyl ether, stirred and then centrifuged to remove free aglycon which was transferred into the ether layer. By applying the water layer to a Diaion HP-20 column and passing purified water through the column, free primeverose was removed. The disaccharide glycoside adsorbed to the resin was eluted with methanol and concentrated to dryness. This was dissolved in 100 μl of deionized water, and a 20 μl portion thereof was spotted on a TLC plate to detect the reaction product (the developing solvent was ethyl acetate:acetic acid:deionized water=3:1:1, acetic acid:methanol=1:4 solution was sprayed thereto after the development and allowed to stand at 105° C. for 10 minutes).

[9] = medium supplemented with 0.1% of saccharide, cultured 6 days, diglycosidase activity, not added = 100

Molecule | Inducing ability (%) [1, 9] | activity at 0.1 % [1, 9] | other results
OC[C@@H](O)C(O)[C@H](O)CO [Arabitol] | 112% |  | 
OC[C@@H](O)[C@@H](O[C@H]1O[C@H](CO)[C@@H](O)[C@H](O)[C@H]1O)[C@H](O)[C@@H](O)CO [Maltitol] | 142% |  | 
OC[C@H]1O[C@@](CO)(O[C@H]2O[C@H](CO)[C@@H](O)[C@H](O)[C@H]2O)[C@@H](O)[C@@H]1O [Sucrose] |  | 116% | 
O=C[C@H](O)[C@@H](O)[C@@H](O)[C@H](O)CO [Galactose] |  | 125% | 
OC[C@@H](O)[C@H](O)[C@H](O)[C@@H](O)CO [Galactitol] |  | 142% | 
OC[C@H]1O[C@H](O[C@H]2[C@H](O)[C@@H](O)C(O)O[C@@H]2CO)[C@H](O)[C@@H](O)[C@@H]1O (mixture of isomers) [Maltose] |  | 136% | 
Gentiobiose | 211% |  | inducing ability / producing ability of diglycosidase (in words) ([1]; 0.1% saccharide, 6 days): markedly high inducing ability
O=C(CO)[C@@H](O)[C@H](O)[C@H](O)CO [Fructose] |  |  | activity at 0.1 % [1]: 143%
Maltotriose | 171% |  | 
C[C@H](O)[C@H](O)[C@@H](O)[C@@H](O)C=O [Rhamnose] |  | 129% | 
OC[C@H]1O[C@H](OC[C@H]2OC(O)[C@H](O)[C@@H](O)[C@@H]2O)[C@H](O)[C@@H](O)[C@@H]1O (some centres unmarked) [Isomaltose] | 145% |  | 
OC[C@H]1O[C@H](O[C@H]2O[C@H](CO)[C@@H](O)[C@H](O)[C@H]2O)[C@H](O)[C@@H](O)[C@@H]1O [Trehalose] |  | 113% | 
N[C@H]1C(O)O[C@H](CO)[C@@H](O)[C@@H]1O (some centres unmarked) [Glucosamine hydrochloride] |  | 157% | 
B1 |  |  | activity at pH 3 (in words) [2]: sufficient activity; activity at 60° C. [3]: 80%; temperature at which activity is stable [4]: ≤ 50 °C; release of disaccharide (TLC) [5]: release of a disaccharide was confirmed; release of disaccharide (TLC) [6]: release of a disaccharide was confirmed; release of eugenol (gas chromatography) [6]: confirmed; release of eugenol (sensory test) [6]: release of eugenol was also confirmed; release of primeverose and alizarin (TLC) [7]: release of the disaccharide primeverose and the aglycon alizarin was observed; transfer of disaccharide to phenethyl alcohol (TLC) [8]: transfers the diglycoside to phenethyl alcohol and thereby forms a disaccharide glycoside
